Results taken from US7875599B2, “C-17-heteroaryl steroidal CYP17 inhibitors/antiandrogens, in vitro biological activities, pharmacokinetics and antitumor activity” (University of Maryland, priority 2005, dated 2011).
Where two headings read alike, the source gives them in different places.

How the values were obtained:
[1] = target: T1, human 5α-reductase type 1 (Homo sapiens, UniProt P18405); assay: Human 5α-reductase type 1 assay (DU-145 cell line)
T1 sequence (P18405 1-259): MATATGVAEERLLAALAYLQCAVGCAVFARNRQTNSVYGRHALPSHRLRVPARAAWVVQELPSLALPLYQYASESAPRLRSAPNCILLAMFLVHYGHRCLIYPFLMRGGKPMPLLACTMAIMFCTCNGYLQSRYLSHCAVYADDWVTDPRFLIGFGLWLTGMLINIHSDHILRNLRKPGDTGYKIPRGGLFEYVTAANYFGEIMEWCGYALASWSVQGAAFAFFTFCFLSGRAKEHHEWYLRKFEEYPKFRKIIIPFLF

[2] = Pharmacokinetics after single s.c. dose in male SCID mice; type: in vivo, mouse; details: for peak plasma level: mice (as printed in summary b4); for half-life: male, SCID
Description: Pharmacokinetics of 5 and 6 and metabolism of 5: The pharmacokinetic properties in male SCID mouse for the two lead compounds, 5 and 6 are studied following our recently described procedure for other CYP17 inhibitors (Nnane et al., “Pharmacokinetic profile of 3β-hydroxy-17-(1H-123-triazol-1-yl)androsta-5,16-diene (VN/87-1), a potent androgen synthesis inhibitor in mice”, J. Steroid Biochem. Molec. Biol., 2001, 71, 145-152; and Handratta et al., “Potent CYP17 inhibitors: improved syntheses, pharmacokinetics and anti-tumor activity in the LNCaP human prostate cancer model”, J. Steroid Biochem. Molec. Biol., 2004, 92, 155-165.
Pharmacokinetic Studies All animal studies are performed according to the guidelines and approval of the Animal Care Committee of the University of Maryland School of Medicine, Baltimore. Male SCID mice weighing 20-22 gm (8-10 weeks old) obtained from NCI, Frederick, Md., USA are maintained in a controlled environment of about 25° C., 50% relative humidity and 12 h of light and 12 h of dark cycles and allowed free access to food and water. Compounds 5 and 6 are formulated in 40% β-cyclodextrin in water and a single subcutaneous dose is given to mice. The animals are sacrificed at various times up to 6 h after drug administration and blood was obtained by cardiac puncture under light halothane (Ayerst, New York, N.Y., USA) anesthesia.
HPLC Analysis: Chromatographic separations and quantification of the steroids and the appropriate internal standards are achieved by a reverse phase HPLC method on a Waters® Novapak® C18 column (3.9×150 mm) protected by Waters® guard cartridge packed with pellicle C18 as previously described. Briefly, the HPLC system used in this study consisted of Waters® solvent delivery system, Waters® controller (Milford, Mass.), coupled to a Waters® 717^plus autosampler and a Waters® 996 photodiode array detector operated at 242.7 nm. The mobile phase composition is Water/MeOH/CH3CN (35:35:30, v/v/v+200 μl, of Et3N and 0.77 g of NH4OAc per 1000 mL of mobile phase) at a flow rate of 1.0 mL/min. The HPLC analysis is performed at ambient temperature and data acquisition and management ius achieved with a Waters® millennium chromatography manager.
Sample Preparation: Test tubes containing mouse plasma (200 μL), 5 or 6 and VN/85-1 (internal standard, 10 μL of 100 μg/mL), are extracted with diethyl ether (2×2 mL) using a vortex mixer for 3 minutes and centrifuged at 3000 g for 5 min. The organic layers are evaporated to dryness under a gentle stream of air. The residue is reconstituted in an aliquot of the mobile phase (100 μL) and filtered using 0.2 μm Teflon filters before HPLC analysis. Calibration Curve and HPLC Assay Validation: The calibration curves for 5 in plasma and tissue and for 6 in plasma are constructed by spiking varying amounts of the compounds into extraction tubes (duplicate) containing plasma (200 μL) and tissue preparations (200 μL) from untreated animals to give final concentrations of 0.1-100.0 μg/mL. Appropriate blank extraction tubes are also prepared and an aliquot of the internal standard is added into each extraction tube to give a final concentration of 5 μg/ml. The calibration samples are taken through the sample preparation procedure as described above. An aliquot of the reconstituted extract (50 μl) is injected into the HPLC system and the ratio of the peak areas for each analyte to that of the internal standard are plotted against concentrations of 5 or 6. The precision and accuracy of the assays are determined from a range of known concentrations of the inhibitors in blank plasma and taken through the HPLC procedure. The study is repeated on three separate occasions.
Data Analysis: Pharmacokinetic calculations are performed as previously described. The non-compartmental pharmacokinetic calculations are performed using WinNOnlin (Scientific Consulting Inc.). […]

CYP17 = target: T2, CYP17 (Homo sapiens, UniProt P05093); assay: CYP17 inhibition, acetic acid releasing assay with intact P450c17-expressing E. coli
T2 sequence (P05093 1-508): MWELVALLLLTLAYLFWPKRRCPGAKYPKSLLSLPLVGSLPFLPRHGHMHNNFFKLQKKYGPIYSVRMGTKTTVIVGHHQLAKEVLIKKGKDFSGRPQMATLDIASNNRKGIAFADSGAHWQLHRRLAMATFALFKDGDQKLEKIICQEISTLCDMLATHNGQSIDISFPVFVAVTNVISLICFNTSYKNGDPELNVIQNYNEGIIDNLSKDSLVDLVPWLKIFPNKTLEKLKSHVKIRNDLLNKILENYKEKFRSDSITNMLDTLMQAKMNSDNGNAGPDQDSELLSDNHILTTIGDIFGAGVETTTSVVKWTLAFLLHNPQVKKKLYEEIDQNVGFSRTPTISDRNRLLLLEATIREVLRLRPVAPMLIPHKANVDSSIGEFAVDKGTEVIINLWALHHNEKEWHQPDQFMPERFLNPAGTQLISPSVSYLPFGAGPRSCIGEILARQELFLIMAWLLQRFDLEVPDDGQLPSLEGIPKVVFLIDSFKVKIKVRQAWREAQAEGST

[3] = target: T3, human 5α-reductase type 2 (Homo sapiens, UniProt P31213); assay: Human 5α-reductase type 2 assay (BPH tissue homogenate)
T3 sequence (P31213 1-254): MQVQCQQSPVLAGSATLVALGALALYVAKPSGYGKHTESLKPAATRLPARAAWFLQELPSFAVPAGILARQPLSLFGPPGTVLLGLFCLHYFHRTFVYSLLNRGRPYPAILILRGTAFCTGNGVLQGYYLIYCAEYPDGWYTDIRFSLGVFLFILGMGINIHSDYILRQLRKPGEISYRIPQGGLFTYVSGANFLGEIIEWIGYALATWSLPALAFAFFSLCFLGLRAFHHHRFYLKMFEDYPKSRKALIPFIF

[4] = mouse, plasma, sc, 50 mg/kg, 50 mg/kg s.c., male SCID mice

## C[C@]12CC[C@H](O)CC1=CC[C@@H]1[C@@H]2CC[C@]2(C)C(n3cnc4ccccc43)=CC[C@@H]12 [Compound 5, 3β-Hydroxy-17-(1H-benzimidazol-1-yl)androsta-5,16-diene]
[1]; read-out: 5α-Reductase type 1 % inhibition at 10 μM
  inhibition at 10 µM: 4%
[2]; 50 mg/kg s.c., male SCID mice
  AUC: 1440.00 ± 60.23 µg·min/mL
  Cmax: 16820 ± 370 ng/mL
  MRT: 65.40 ± 0.60 min
  Tmax: 30.0 min
  Vd: 2098.99 ± 4. mL/kg
[2]; 50 mg/kg s.c.
  peak plasma level: 16.82 ng/mL
[2]; 100 mg/kg s.c., male SCID mice
  AUC: 1813.94 ± 10.94 µg·min/mL
  Cmax: 32230 ± 340 ng/mL
  MRT: 60.46 ± 1.54 min
  Tmax: 30.00 ± 0.0 min
  Vd: 113276.39 ± 26.71 mL/kg
[2]; [4]
  half-life: 44.2 min
[2]; mouse, plasma, sc, 100 mg/kg, 100 mg/kg s.c., male SCID mice
  half-life: 36.6 ± 1.6 min
[2]; s.c. administration, male SCID mice
  clearance from the systemic circulation: 33.1023 mL/min/kg
CYP17
  IC50: 300 nM
[3]; read-out: 5α-Reductase type 2 % inhibition at 10 μM
  inhibition at 10 µM: 53%

## C[C@]12CCC(=O)C=C1CC[C@@H]1[C@@H]2CC[C@]2(C)C(n3cnc4ccccc43)=CC[C@@H]12 [Compound 6, 17-(1H-benzimidazol-1-yl)androsta-4,16-diene-3-one]
[1]
  IC50: 770 nM
[2]; 50 mg/kg s.c., male SCID mice
  Kel: 0.0183 ± 0.004 min⁻¹
  Vd: 4207.24 ± 6.25 mL/kg
[2]; 50 mg/kg s.c., male SCID mice, plasma
  t1/2: 37.93 ± 1.15 min
[2]; 50 mg/kg s.c.
  peak plasma level: 5.15 ng/mL
[2]; in vivo pharmacokinetics in mice
  metabolism of the compound detected in plasma: did not detect any metabolism(s)
[2]; [4]
  half-life: 39.9 min
[2]; mouse, plasma, sc, 50 mg/kg s.c., male SCID mice, read-out: AUC (converted)
  AUC: 647 µg·min/mL
[2]; mouse, plasma, sc, 50 mg/kg s.c., male SCID mice, read-out: Cmax
  Cmax: 5150 ± 90 ng/mL
[2]; mouse, plasma, sc, 50 mg/kg s.c., male SCID mice, read-out: MRT (converted)
  MRT: 80 min
[2]; mouse, plasma, sc, 50 mg/kg s.c., male SCID mice, read-out: Tmax (converted)
  Tmax: 60 min
[2]; s.c. administration, mice
  time after administration at which compound was not detected in plasma: 8 h
CYP17
  IC50: 915 nM
[3]
  IC50: 480 nM
